According to ChEMBL document CHEMBL4368860, “Structure activity relationship of 2-arylalkynyl-adenine derivatives as human A3 adenosine receptor antagonists” (Medchemcomm, 2018):
One block for each compound: values may come before it.

What was measured:
Adenosine receptor A3 [1] = target: T1, Adenosine receptor A3 (Homo sapiens, UniProt P0DMS8); assay: Displacement of [125I]I-AB-MECA from recombinant human adenosine A3 receptor expressed in CHO cell membranes
T1 sequence (P0DMS8 whole entry): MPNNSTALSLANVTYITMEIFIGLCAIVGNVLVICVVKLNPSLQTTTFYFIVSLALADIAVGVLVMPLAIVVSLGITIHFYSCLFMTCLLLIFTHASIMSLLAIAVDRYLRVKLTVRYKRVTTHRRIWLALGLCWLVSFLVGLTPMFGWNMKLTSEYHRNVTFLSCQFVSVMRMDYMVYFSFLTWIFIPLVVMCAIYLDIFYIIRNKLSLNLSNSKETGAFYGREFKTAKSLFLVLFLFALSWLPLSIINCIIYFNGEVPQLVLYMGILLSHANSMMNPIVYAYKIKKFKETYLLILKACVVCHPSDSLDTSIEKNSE

Adenosine receptor A3 [2] = target: T1, Adenosine receptor A3; assay: Antagonist activity at human A3AR expressed in CHO cells assessed as suppression of NECA-induced reduction in cAMP accumulation; format: functional, cell-based
Adenosine receptor A2a [3] = target: T2, Adenosine receptor A2a (Homo sapiens, UniProt P29274); assay: Displacement of [3H]ZM241385 from human A2A receptor expressed in HEK293 cell membranes
[4] = target: Alpha-2C adrenergic receptor (Homo sapiens, UniProt P18825); assay: Displacement of [3H]Rauwolscine from human alpha 2C adrenergic receptor expressed in MDCK cells by radioligand binding assay; format: cell-based
Adenosine receptor A1 = target: T3, Adenosine receptor A1 (Homo sapiens, UniProt P30542); assay: Displacement of [3H]DPCPX from recombinant human A1 receptor expressed in CHO cell membranes
T3 sequence (P30542 whole entry): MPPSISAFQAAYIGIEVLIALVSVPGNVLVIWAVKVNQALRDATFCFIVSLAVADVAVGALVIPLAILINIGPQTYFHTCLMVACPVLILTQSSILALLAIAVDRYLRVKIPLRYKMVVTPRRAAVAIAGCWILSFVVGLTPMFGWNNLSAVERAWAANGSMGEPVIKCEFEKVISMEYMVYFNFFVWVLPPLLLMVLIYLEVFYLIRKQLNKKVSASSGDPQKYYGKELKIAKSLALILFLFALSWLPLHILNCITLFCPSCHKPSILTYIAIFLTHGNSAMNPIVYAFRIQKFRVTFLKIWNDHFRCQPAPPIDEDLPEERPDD

[5] = Displacement of [3H]DPCPX from pig A1 receptor; design: species or system Sus scrofa
[6] = target: T4, Adenosine receptor A1 (Homo sapiens) (UniProt P30542); assay: Displacement of [3H]DPCPX from recombinant human A1 receptor expressed in CHO cell membranes at 10 uM
T4 sequence (whole entry): T3 sequence (P30542 whole entry)

[7] = target: Adenosine receptor A1 (Mus musculus) (UniProt Q60612); assay: Displacement of [3H]DPCPX from mouse A1 receptor at 10 uM
Adenosine receptor A3 [8] = target: Adenosine receptor A3 (Mus musculus, UniProt Q61618); assay: Displacement of [125I]I-AB-MECA from recombinant mouse adenosine A3 receptor expressed in HEK293 cell membranes
[9] = target: Sigma intracellular receptor 2 (Homo sapiens, UniProt Q5BJF2); assay: Displacement of [3H]-DTG from human sigma 2 receptor
[10] = target: Sodium-dependent noradrenaline transporter (Homo sapiens, UniProt P23975); assay: Displacement of [3H]Nisoxetine from human NET expressed in HEK cells by radioligand binding assay; format: cell-based
Adenosine receptor A2a [11] = target: Adenosine receptor A2a (Mus musculus, UniProt Q60613); assay: Displacement of [3H]ZM241385 from mouse A2A receptor at 10 uM; conditions: probe [3H]ZM241385
Adenosine receptor A2a [12] = target: T2, Adenosine receptor A2a; assay: Displacement of [3H]ZM241385 from human A2A receptor expressed in HEK293 cell membranes at 10 uM; conditions: HEK293 cell membranes expressing human A2A receptor, probe [3H]ZM241385
Homo sapiens = organism: Homo sapiens; assay: Selectivity ratio of Ki for displacement of [125I]I-AB-MECA from recombinant mouse adenosine A3 receptor expressed in HEK293 cell membranes to Ki for displacement of [125I]I-AB-MECA from recombinant human adenosine A3 receptor
[13] = target: Sigma non-opioid intracellular receptor 1 (Cavia porcellus, UniProt Q60492); assay: Displacement of [3H]-(+)-pentazocine from sigma-1 receptor in guinea pig by radioligand binding assay
D(1A) dopamine receptor = D(1A) dopamine receptor (Homo sapiens, UniProt P21728); assay: Displacement of [3H]SCH23390 from human dopamine D1 receptor expressed in HEK293T cell membranes by radioligand binding assay
Chain of D(1A) dopamine receptor (P21728 whole entry): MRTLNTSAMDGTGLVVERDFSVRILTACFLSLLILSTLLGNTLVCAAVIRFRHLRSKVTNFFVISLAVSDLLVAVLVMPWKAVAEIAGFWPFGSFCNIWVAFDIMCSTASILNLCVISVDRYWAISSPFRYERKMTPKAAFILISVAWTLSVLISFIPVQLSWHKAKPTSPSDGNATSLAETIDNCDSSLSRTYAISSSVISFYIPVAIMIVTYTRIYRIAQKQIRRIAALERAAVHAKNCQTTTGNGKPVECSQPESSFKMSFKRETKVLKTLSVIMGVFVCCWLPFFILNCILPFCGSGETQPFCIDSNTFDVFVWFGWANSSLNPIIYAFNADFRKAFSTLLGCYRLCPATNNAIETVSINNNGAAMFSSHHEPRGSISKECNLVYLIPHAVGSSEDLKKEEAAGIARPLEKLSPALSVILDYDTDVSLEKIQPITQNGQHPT

T2 sequence (P29274 whole entry): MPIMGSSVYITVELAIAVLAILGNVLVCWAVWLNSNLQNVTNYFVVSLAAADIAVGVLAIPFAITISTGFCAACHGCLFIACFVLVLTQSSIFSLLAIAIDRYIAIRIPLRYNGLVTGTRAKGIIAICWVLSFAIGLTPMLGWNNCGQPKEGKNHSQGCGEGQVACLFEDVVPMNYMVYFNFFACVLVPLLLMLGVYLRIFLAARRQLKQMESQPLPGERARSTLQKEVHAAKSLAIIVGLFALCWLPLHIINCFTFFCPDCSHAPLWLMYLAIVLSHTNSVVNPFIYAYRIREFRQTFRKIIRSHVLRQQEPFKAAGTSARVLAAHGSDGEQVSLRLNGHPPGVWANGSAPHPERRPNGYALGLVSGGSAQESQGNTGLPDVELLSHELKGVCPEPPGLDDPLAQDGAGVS
Chain of Sigma intracellular receptor 2 (Q5BJF2 whole entry): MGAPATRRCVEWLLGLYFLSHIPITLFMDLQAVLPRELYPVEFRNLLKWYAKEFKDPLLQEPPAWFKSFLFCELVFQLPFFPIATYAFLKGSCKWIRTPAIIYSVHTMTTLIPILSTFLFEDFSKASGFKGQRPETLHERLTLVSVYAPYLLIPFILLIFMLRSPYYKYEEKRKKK
Chain of Sodium-dependent noradrenaline transporter (P23975 whole entry): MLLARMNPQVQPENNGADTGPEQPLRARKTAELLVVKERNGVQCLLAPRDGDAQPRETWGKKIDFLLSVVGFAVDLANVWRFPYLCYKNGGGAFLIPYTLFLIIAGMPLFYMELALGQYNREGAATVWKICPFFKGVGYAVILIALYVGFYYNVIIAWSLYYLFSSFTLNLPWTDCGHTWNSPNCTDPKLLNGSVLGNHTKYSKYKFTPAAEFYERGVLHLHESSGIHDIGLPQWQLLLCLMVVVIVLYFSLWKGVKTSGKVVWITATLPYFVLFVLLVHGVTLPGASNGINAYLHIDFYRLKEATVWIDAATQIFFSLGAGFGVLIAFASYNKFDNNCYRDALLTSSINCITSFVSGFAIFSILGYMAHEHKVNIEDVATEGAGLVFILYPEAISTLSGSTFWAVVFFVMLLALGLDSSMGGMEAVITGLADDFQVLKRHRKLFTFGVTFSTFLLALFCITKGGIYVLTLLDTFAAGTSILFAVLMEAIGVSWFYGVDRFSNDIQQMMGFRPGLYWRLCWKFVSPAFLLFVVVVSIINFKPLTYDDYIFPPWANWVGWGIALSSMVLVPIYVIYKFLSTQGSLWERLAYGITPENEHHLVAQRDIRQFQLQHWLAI
Chain of Adenosine receptor A1 (Mus musculus) (Q60612 whole entry): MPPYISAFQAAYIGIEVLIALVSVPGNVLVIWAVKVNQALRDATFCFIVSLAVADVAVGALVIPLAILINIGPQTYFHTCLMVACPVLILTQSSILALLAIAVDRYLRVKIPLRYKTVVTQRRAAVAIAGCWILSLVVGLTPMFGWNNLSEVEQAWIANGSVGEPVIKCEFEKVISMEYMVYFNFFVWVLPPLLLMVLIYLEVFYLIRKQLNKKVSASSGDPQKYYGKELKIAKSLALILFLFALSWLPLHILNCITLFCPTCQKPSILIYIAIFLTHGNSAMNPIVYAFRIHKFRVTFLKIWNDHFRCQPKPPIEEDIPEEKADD
Chain of Adenosine receptor A2a (Mus musculus, UniProt Q60613) (Q60613 whole entry): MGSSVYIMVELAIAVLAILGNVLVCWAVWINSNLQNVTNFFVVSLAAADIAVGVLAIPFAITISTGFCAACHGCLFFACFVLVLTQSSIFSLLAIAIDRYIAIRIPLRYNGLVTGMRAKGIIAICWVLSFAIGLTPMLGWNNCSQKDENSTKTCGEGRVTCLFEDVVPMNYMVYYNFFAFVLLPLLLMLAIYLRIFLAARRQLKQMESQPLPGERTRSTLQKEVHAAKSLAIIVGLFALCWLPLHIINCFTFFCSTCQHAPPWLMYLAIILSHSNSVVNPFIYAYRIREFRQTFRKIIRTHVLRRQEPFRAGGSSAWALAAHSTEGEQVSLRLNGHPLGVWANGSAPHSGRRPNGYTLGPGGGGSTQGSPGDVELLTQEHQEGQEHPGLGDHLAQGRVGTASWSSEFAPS
Chain of Alpha-2C adrenergic receptor (P18825 whole entry): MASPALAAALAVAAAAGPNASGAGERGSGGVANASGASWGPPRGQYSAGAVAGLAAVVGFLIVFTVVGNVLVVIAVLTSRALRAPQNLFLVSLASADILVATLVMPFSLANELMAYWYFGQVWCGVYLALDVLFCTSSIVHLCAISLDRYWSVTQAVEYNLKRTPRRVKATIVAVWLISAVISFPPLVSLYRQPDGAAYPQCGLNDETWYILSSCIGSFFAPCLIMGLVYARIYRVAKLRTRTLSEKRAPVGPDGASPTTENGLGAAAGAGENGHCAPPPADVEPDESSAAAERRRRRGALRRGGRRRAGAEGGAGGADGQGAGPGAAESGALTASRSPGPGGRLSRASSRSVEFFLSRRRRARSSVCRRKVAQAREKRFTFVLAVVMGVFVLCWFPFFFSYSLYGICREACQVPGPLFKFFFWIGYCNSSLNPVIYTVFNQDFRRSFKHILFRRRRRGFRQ
Chain of Adenosine receptor A3 (Mus musculus, UniProt Q61618) (Q61618 whole entry): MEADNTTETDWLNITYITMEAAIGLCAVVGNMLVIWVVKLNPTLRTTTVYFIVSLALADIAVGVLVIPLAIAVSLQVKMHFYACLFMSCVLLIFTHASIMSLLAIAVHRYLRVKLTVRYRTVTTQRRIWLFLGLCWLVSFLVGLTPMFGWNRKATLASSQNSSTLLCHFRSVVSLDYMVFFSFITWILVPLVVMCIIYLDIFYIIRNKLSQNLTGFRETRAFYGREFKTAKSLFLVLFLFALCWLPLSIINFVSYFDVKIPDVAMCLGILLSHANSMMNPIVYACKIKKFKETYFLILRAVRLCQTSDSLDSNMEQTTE
Chain of Sigma non-opioid intracellular receptor 1 (Q60492 whole entry): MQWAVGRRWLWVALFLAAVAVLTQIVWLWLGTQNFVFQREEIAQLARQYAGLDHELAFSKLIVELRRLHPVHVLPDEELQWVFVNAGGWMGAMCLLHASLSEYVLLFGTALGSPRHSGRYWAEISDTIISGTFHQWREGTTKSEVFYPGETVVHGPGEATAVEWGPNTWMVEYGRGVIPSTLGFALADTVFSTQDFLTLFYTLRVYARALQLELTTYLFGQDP

Ki (Adenosine receptor A3 [1]): 0.0174 µM
EC50 (Adenosine receptor A3 [2]): 0.276 µM
Ki (Adenosine receptor A2a [3]): 1.34 µM
Ki [4]: 1.49 µM
Ki (Adenosine receptor A1): 1.12 µM
SMILES: Clc1ccc(C#Cc2nc(NC3CCCC3)c3nc[nH]c3n2)s1

Ki (Adenosine receptor A2a [3]): 2.32 µM
Ki [5]: 0.0065 µM
SMILES: OC[C@H]1O[C@@H](n2cnc3c(N[C@@H]4CCOC4)ncnc32)[C@H](O)[C@@H]1O [TECADENOSON]

Ki (Adenosine receptor A3 [1]): 0.02 µM
inhibition [6]: 30%
inhibition [7]: 39%
Ki (Adenosine receptor A3 [8]): 0.48 µM
Ki [9]: 1.3 µM
Ki [10]: 2.8 µM
inhibition at 10 µM (Adenosine receptor A2a [11]): 13%
inhibition at 10 µM (Adenosine receptor A2a [12]): 22%
SMILES: C[C@@]12C[C@@H]1[C@@H](n1cnc3c(NCCc4ccccc4)nc(C#Cc4ccccc4)nc31)[C@H](O)[C@@H]2O
Ratio Ki (Homo sapiens): 24

Ki (Adenosine receptor A3 [1]): 0.0331 µM
inhibition [6]: 32%
Ki [13]: 1.16 µM
Ki (D(1A) dopamine receptor): 5.11 µM
inhibition at 10 µM (Adenosine receptor A2a [12]): 18%
SMILES: CCNc1nc(C#Cc2ccc(Cl)s2)nc2[nH]cnc12
